Structures are written as SMILES.

A word on the inhibition: it is the relative decrease from the control value, in per cent. By % Inhibition is commonly meant the relative decrease from the control value, in per cent.

This assay deals with T1, human full-length recombinant PKC βII (Homo sapiens, UniProt P05771).
T1 construct: Active human full-length recombinant PKC βII; purchased Invitrogen GmbH, Darmstadt, Germany
T1 sequence (P05771 1-673 isoform P05771-2): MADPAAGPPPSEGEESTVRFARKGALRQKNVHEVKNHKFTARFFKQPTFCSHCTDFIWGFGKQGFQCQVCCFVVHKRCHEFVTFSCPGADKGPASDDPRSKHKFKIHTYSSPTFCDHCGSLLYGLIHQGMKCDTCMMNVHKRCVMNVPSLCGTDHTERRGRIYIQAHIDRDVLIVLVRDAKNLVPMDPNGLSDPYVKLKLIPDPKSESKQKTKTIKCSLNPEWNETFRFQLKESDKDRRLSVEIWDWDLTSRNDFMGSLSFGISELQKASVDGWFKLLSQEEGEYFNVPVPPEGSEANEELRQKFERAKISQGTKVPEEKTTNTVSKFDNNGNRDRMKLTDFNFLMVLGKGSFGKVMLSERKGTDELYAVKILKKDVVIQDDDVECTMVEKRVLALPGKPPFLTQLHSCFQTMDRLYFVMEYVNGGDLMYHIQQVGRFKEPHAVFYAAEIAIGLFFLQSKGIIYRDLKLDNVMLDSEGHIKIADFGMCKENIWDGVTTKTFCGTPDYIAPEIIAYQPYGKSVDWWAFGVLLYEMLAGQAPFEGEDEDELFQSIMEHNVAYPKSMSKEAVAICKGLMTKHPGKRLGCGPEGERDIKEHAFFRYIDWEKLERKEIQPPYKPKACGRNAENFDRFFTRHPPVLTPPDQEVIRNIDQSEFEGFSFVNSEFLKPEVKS
The assay is described as follows: Determination of PKC βII inhibition (Caliper mobility-shift kinase assay, Fluorescein-RFARKGSLRQKNV peptide substrate). The format is biochemical. The following applies: example compounds at a final concentration of 1.14 μM (±0.15 μM). As to the method: Determination of PKC βII Inhibition
PKC βII Inhibition was Determined According to the Following Protocol:
Active human full-length recombinant PKC βII and the peptide substrate, Fluorescein-RFARKGSLRQKNV, were purchased from Invitrogen GmbH, Darmstadt, Germany. Adenosine-5′-triphosphate (ATP), bovine serum albumine (BSA), dimethylsulphoxide (DMSO), 4-(2-hydroxyethyl)piperazine-1-ethanesulfonic acid (Hepes), Triton X-100, 1,2-Dioleoyl-sn-glycerol (DAG), L-G-Phosphatidyl-L-serine (PS), calcium chloride (CaCl2), and Pluronic F-68 were purchased from Sigma-Aldrich, Munich, Germany. Magnesium chloride, 1 M sodium hydroxide solution, 1M hydrochloric acid solution and EDTA were obtained from Merck Biosciences, Darmstadt, Germany.
Test compounds were diluted to three times the test concentration in buffer 1 (30 mM Hepes-NaOH, pH 7.4, 0.01% Pluronic F-68 and 3% (v/v) DMSO). The PKC enzyme was diluted to a concentration of 30 ng/ml in buffer 2 (30 mM Hepes-NaOH, pH 7.4, 15 mM MgCl2, 150 μM CaCl2, 150 μg/ml PS, 60 μg/ml DAG, and 0.045% (w/v) Triton X-100). The peptide substrate and ATP were diluted to concentrations of 3 μM and 120 μM, respectively, in buffer 2. Two μl of the compound solution were mixed with 2 μl of the diluted enzyme in a 384-well small volume microtiter plate (Greiner, Bio-One, Frickenhausen, Germany), and the kinase reaction was initiated by addition of 2 μl of the solution containing peptide substrate and ATP. After 60 min incubation at 32° C., the reaction was stopped by addition of 20 μl of a solution containing 130 mM Hepes-NaOH, pH 7.4. 0.0195% (v/v) Brij-35, 6.5 mM EDTA. 0.13% chip coating reagent 3 (Caliper Lifescience Inc, Hopkinton, Mass.) and 6.5% (v/v) DMSO. Phosphorylation of the substrate peptide was then detected on a Caliper 3000 instrument essentially as described by Pommereau et al (J. Biomol. Screening 2004, 9(5), 409-416). Separation conditions were as follows: Pressure −0.8 psi, upstream voltage −3000 V, downstream voltage −800 V. Positive controls (buffer 1 instead of compound) and negative controls (buffer 1 instead of compound and buffer 2 instead of kinase solution) were run in parallel on each plate. Fractional turnover (R) was determined as the height of the peak of the phosphorylated peptide product divided by the sum of the unphosphorylated substrate and phosphorylated product peak heights. Percent-inhibition values for the test compounds were determined using the formula % Inhibition=100*(1−(Rcompound−Rnegative control)/(Rpositive control−Rnegative control).
In the following table % inhibition values observed with example compounds at a final concentration of 1.14 μM (±0.15 μM) are listed: […]
On to `Cc1n[nH]c2nc(-c3ccc(O)cc3F)cc(C(=O)N3CCNC(c4ccccc4)C3)c12` (centres unmarked) [Example 421, [6-(2-Fluoro-4-hydroxy-phenyl)-3-methyl-1H-pyrazolo[3,4-b]pyridin-4-yl]-(3-phenyl-piperazin-1-yl)-methanone], for which the inhibition at 1.14 µM amounted to 51%.
As for `Cc1n[nH]c2nc(-c3ccc(O)cc3)cc(C(=O)NCCN3CCCC3)c12` [Example 35, 6-(4-Hydroxy-phenyl)-3-methyl-1H-pyrazolo[3,4-b]pyridine-4-carboxylic acid (2-pyrrolidin-1-yl-ethyl)-amide], the inhibition at 1.14 µM stood at 52%.
With `CCCC1(N)CCCN(C(=O)c2cc(-c3ccc(O)cc3)nc3[nH]nc(C)c23)C1` (centres unmarked) [Example 48, (3-Amino-3-propyl-piperidin-1-yl)-[6-(4-hydroxy-phenyl)-3-methyl-1H-pyrazolo[3,4-b]pyridin-4-yl]-methanone], the inhibition at 1.14 µM was 70%.
The same measure, in the same setting: next, `CCC1(NC(=O)c2cc(-c3ccc(O)cc3)nc3[nH]nc(C)c23)CCCNC1` (centres unmarked) [Example 115, 6-(4-Hydroxy-phenyl)-3-methyl-1H-pyrazolo[3,4-b]pyridine-4-carboxylic acid (3-ethyl-piperidin-3-yl)-amide]: 83%; `Cc1n[nH]c2nc(-c3ccc(O)cc3)cc(C(=O)N3CCC4(CCCNC4)C3)c12` (centres unmarked) [Example 235, (2,7-Diaza-spiro[4.5]dec-2-yl)-[6-(4-hydroxy-phenyl)-3-methyl-1H-pyrazolo[3,4-b]pyridin-4-yl]-methanone]: 89%; `Cc1n[nH]c2nc(-c3ccc(O)c(F)c3)cc(C(=O)N3CC[C@@H](N(C)C)C3)c12` [Example 347, ((R)-3-Dimethylamino-pyrrolidin-1-yl)-[6-(3-fluoro-4-hydroxy-phenyl)-3-methyl-1H-pyrazolo[3,4-b]pyridin-4-yl]-methanone]: 35%.
For `Cc1n[nH]c2nc(-c3ccc(O)cc3)cc(C(=O)N3CCNCC34CC4)c12` [Example 80, (4,7-Diaza-spiro[2.5]oct-4-yl)-[6-(4-hydroxy-phenyl)-3-methyl-1H-pyrazolo[3,4-b]pyridin-4-yl]-methanone], the inhibition at 1.14 µM came out at 91%.
Regarding `Cc1n[nH]c2nc(-c3ccc(O)cc3)cc(C(=O)N3CC4(CCNCC4)c4ccccc43)c12` [Example 237], the inhibition at 1.14 µM was 59%.
Turning to `CCCC1(N)CCN(C(=O)c2cc(-c3ccc(O)cc3)nc3[nH]nc(C)c23)CC1` [Example 46, (4-Amino-4-propyl-piperidin-1-yl)-[6-(4-hydroxy-phenyl)-3-methyl-1H-pyrazolo[3,4-b]pyridin-4-yl]-methanone], the inhibition at 1.14 µM is 76%.
Consider `Cc1n[nH]c2nc(-c3ccc(O)c(F)c3)cc(C(=O)N3CC[C@H](N(C)C)C3)c12` [Example 348, ((S)-3-Dimethylamino-pyrrolidin-1-yl)-[6-(3-fluoro-4-hydroxy-phenyl)-3-methyl-1H-pyrazolo[3,4-b]pyridin-4-yl]-methanone], for which the inhibition at 1.14 µM was determined as 44%.
Regarding `Cc1n[nH]c2nc(-c3ccc(O)cc3)cc(C(=O)N[C@H]3CC[C@H](N)CC3)c12` [Example 77, 6-(4-Hydroxy-phenyl)-3-methyl-1H-pyrazolo[3,4-b]pyridine-4-carboxylic acid (trans-4-amino-cyclohexyl)-amide], the inhibition at 1.14 µM was 60%.
Turning to `CCCC[C@H]1CN(C(=O)c2cc(-c3ccc(O)cc3)nc3[nH]nc(C)c23)CCN1` [Example 209, ((S)-3-Butyl-piperazin-1-yl)-[6-(4-hydroxy-phenyl)-3-methyl-1H-pyrazolo[3,4-b]pyridin-4-yl]-methanone], the inhibition at 1.14 µM stood at 97%.
For the compound `Cc1n[nH]c2nc(-c3ccc(O)cc3)cc(C(=O)N3CC4CCC(C3)N4)c12` [Example 111, 3,8-Diaza-bicyclo[3.2.1]oct-3-yl-[6-(4-hydroxy-phenyl)-3-methyl-1H-pyrazolo[3,4-b]pyridin-4-yl]-methanone], the inhibition at 1.14 µM amounted to 97%.
Turning to `Cc1n[nH]c2nc(-c3ccc(O)cc3)cc(C(=O)N3CCN[C@H](C)C3)c12` [Example 189, [6-(4-Hydroxy-phenyl)-3-methyl-1H-pyrazolo[3,4-b]pyridin-4-yl]-((R)-3-methyl-piperazin-1-yl)-methanone], the inhibition at 1.14 µM was 96%.
The same measure, in the same setting: next, `O=C(N[C@@H]1CCCNC1)c1cc(-c2ccc(O)cc2)nc2[nH]nc(C(F)(F)F)c12` [Example 398, 6-(4-Hydroxy-phenyl)-3-trifluoromethyl-1H-pyrazolo[3,4-b]pyridine-4-carboxylic acid (R)-piperidin-3-ylamide]: 21%; `Cc1n[nH]c2nc(-c3ccc(O)cc3)cc(C(=O)N3CCNCC3c3ccc(F)cc3)c12` (centres unmarked) [Example 84, [2-(4-Fluoro-phenyl)-piperazin-1-yl]-[6-(4-hydroxy-phenyl)-3-methyl-1H-pyrazolo[3,4-b]pyridin-4-yl]-methanone]: 101%.
Consider `Cc1n[nH]c2nc(-c3ccc(O)c(F)c3)cc(C(=O)N3CCC4(CCNCC4)C3)c12` [Example 343, (2,8-Diaza-spiro[4.5]dec-2-yl)-[6-(3-fluoro-4-hydroxy-phenyl)-3-methyl-1H-pyrazolo[3,4-b]pyridin-4-yl]-methanone], for which the inhibition at 1.14 µM was found to be 49%.
Same read-out and setting: next, `Cc1n[nH]c2nc(-c3ccc(O)cc3)cc(C(=O)NCCN3CCC(c4ccccc4)CC3)c12` [Example 390, 6-(4-Hydroxy-phenyl)-3-methyl-1H-pyrazolo[3,4-b]pyridine-4-carboxylic acid [2-(4-phenyl-piperidin-1-yl)-ethyl]-amide]: 67%; `Cc1n[nH]c2nc(-c3ccc(O)cc3F)cc(C(=O)N3CCN[C@@H](C)[C@H]3C)c12` (racemic) [Example 442, ((cis)-2,3-Dimethyl-piperazin-1-yl)-[6-(2-fluoro-4-hydroxy-phenyl)-3-methyl-1H-pyrazolo[3,4-b]pyridin-4-yl]-methanone]: 97%; `CCc1n[nH]c2nc(-c3ccc(O)cc3)cc(C(=O)N3CCC4(CCNC4)C3)c12` (centres unmarked) [Example 172, (2,7-Diaza-spiro[4.4]non-2-yl)-[3-ethyl-6-(4-hydroxy-phenyl)-1H-pyrazolo[3,4-b]pyridin-4-yl]-methanone]: 67%.
As to `Cc1n[nH]c2nc(-c3ccc(O)cc3)cc(C(=O)NC[C@H]3CC[C@@H](N)CC3)c12` [Example 105, 6-(4-Hydroxy-phenyl)-3-methyl-1H-pyrazolo[3,4-b]pyridine-4-carboxylic acid (cis-4-amino-cyclohexylmethyl)-amide], the inhibition at 1.14 µM amounted to 53%.
Regarding `Cc1cc(O)ccc1-c1cc(C(=O)N2CCNCC2c2ccc(Br)cc2)c2c(C)n[nH]c2n1` (centres unmarked) [Example 137, [2-(4-Bromo-phenyl)-piperazin-1-yl]-[6-(4-hydroxy-2-methyl-phenyl)-3-methyl-1H-pyrazolo[3,4-b]pyridin-4-yl]-methanone], the inhibition at 1.14 µM is 99%.
Take `Cc1n[nH]c2nc(-c3ccc(O)cc3)cc(C(=O)N3CCNC[C@H]3Cc3ccccc3)c12` [Example 224, ((R)-2-Benzyl-piperazin-1-yl)-[6-(4-hydroxy-phenyl)-3-methyl-1H-pyrazolo[3,4-b]pyridin-4-yl]-methanone]: the inhibition at 1.14 µM amounted to 92%.
Same read-out and setting: as for `CCN1CC2CC1CN2C(=O)c1cc(-c2ccc(O)cc2)nc2[nH]nc(C)c12` (centres unmarked) [Example 268, (5-Ethyl-2,5-diaza-bicyclo[2.2.1]hept-2-yl)-[6-(4-hydroxy-phenyl)-3-methyl-1H-pyrazolo[3,4-b]pyridin-4-yl]-methanone], the figure is 80%; as for `CC[C@H]1CNCCN1C(=O)c1cc(-c2ccc(O)cc2F)nc2[nH]nc(C)c12` [Example 431, ((S)-2-Ethyl-piperazin-1-yl)-[6-(2-fluoro-4-hydroxy-phenyl)-3-methyl-1H-pyrazolo[3,4-b]pyridin-4-yl]-methanone], 97%.
Regarding `Cc1n[nH]c2nc(-c3ccc(O)cc3)cc(C(=O)NC3CC4CCC(C3)N4C)c12` [Example 201, 6-(4-Hydroxy-phenyl)-3-methyl-1H-pyrazolo[3,4-b]pyridine-4-carboxylic acid ((3R)-8-methyl-8-aza-bicyclo[3.2.1]oct-3-yl)-amide], the “% Inhibition” value is 55%.

These data come from patent publication US8686150B2 (Sanofi, priority 2011, dated 2014).
